Measured values from PMC6850446, “In vivo inactivation of glycosidases by conduritol B epoxide and cyclophellitol as revealed by activity‐based protein profiling” (The Febs Journal, 2019).
pIC50: −log10 of the molar value. Read-outs that look alike come from different tables or passages of the source.

Assays:
Format in all cases: cell-based
[1] = biological target: T1, GBA2 (nonlysosomal glucosylceramidase) (Homo sapiens, UniProt Q9HCG7); assay: intact cells treated, residual activity in lysate with 4MU-glucoside
T1 construct: human GBA2 stably expressed in HEK293T; 110 kDa on gel
T1 sequence (Q9HCG7 1-927): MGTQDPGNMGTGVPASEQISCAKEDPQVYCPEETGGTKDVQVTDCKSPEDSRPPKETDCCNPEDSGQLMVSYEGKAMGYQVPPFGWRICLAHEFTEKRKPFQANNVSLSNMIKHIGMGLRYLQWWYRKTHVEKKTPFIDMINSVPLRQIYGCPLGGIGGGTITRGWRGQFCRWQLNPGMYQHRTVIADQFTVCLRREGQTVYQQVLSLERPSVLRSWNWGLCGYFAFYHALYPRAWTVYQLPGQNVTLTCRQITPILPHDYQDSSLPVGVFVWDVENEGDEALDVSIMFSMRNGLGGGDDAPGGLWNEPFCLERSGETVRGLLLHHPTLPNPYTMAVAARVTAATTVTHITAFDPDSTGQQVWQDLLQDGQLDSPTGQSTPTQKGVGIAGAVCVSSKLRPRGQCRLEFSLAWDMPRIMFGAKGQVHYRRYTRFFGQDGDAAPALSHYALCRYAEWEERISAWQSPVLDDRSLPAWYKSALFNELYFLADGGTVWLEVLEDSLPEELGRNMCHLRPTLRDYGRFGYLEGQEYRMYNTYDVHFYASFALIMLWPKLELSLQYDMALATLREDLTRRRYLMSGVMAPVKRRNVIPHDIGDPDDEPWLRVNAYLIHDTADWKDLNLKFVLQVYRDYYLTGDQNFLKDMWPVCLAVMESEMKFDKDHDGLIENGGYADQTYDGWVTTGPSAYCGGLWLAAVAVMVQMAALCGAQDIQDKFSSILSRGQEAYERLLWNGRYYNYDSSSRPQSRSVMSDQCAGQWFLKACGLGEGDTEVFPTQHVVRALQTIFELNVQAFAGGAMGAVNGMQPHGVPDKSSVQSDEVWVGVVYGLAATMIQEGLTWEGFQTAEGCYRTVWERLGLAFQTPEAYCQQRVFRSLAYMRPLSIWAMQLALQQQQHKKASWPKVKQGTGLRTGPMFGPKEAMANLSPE
Excerpt: intact cells treated, residual activity in lysate with 4MU-glucoside on GBA2 (nonlysosomal glucosylceramidase)

[2] = biological target: T2, GAA (lysosomal alpha-glucosidase) (Homo sapiens, UniProt P10253); assay: intact cells treated, residual activity in lysate with 4MU-alpha-D-glucopyranoside; settings: 24 h treatment of intact HEK293T cells, assay pH 4.0
T2 construct: endogenous enzyme in HEK293T cells (GBA2-expressing line)
Excerpt: intact cells treated, residual activity in lysate with 4MU-alpha-D-glucopyranoside on GAA (lysosomal alpha-glucosidase)

[3] = biological target: T3, GBA3 (Homo sapiens, UniProt Q9H227); assay: intact cells treated, residual activity in lysate supernatant with 4MU-glucoside
T3 construct: human GBA3 overexpressed in HEK293T; expected 45-53 kDa
T3 sequence (Q9H227 1-469): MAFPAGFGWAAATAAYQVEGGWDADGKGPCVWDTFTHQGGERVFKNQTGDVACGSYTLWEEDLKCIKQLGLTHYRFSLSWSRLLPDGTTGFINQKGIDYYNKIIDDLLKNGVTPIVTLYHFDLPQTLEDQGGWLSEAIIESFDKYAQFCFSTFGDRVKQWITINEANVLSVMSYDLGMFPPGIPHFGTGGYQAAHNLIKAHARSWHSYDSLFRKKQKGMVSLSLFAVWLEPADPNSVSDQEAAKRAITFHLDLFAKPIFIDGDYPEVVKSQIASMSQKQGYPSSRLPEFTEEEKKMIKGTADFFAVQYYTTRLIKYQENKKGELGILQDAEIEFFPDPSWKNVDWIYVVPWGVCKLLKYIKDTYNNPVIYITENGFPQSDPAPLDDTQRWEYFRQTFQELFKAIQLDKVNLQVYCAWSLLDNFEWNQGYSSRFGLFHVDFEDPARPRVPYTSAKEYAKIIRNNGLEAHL
Excerpt: intact cells treated, residual activity in lysate supernatant with 4MU-glucoside on GBA3

[4] = biological target: T4, GANAB (Homo sapiens, UniProt Q14697); assay: intact cells treated, residual activity in lysate with 4MU-alpha-D-glucopyranoside; settings: 24 h treatment of intact HEK293T cells, assay pH 7.0
T4 construct: endogenous enzyme in HEK293T cells (GBA2-expressing line); beta subunit not mentioned
T4 sequence (Q14697 29-944): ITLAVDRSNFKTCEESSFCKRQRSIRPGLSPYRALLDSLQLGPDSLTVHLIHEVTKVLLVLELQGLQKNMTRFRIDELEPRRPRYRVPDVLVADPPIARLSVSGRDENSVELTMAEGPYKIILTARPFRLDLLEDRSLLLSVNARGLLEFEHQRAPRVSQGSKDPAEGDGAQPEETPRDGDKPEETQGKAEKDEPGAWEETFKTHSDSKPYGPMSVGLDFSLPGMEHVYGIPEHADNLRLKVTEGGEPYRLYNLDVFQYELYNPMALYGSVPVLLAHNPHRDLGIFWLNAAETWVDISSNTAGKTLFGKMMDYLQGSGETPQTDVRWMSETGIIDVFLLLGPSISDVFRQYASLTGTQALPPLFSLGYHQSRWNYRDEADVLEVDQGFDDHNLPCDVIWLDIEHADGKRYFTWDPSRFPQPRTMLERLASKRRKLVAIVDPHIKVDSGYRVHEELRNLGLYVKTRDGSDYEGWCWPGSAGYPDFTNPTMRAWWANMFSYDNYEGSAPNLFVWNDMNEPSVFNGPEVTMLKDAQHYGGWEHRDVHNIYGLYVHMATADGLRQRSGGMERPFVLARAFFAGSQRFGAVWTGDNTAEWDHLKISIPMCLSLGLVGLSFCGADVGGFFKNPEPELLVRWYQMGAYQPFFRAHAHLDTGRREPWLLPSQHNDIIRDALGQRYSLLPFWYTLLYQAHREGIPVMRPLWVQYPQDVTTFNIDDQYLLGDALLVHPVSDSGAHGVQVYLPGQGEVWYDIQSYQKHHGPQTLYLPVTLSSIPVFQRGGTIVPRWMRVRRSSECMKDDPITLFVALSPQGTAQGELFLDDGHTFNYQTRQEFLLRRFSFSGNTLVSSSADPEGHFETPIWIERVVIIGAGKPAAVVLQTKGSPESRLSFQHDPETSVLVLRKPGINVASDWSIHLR

[5] = covalent, read-out: CBE / Enz. assay

For `OC1C(O)C(O)C2OC2C1O` (centres unmarked) [compound 1, conduritol B epoxide], the pIC50 ([1]; read-out: CBE / Enz. assay) was 3.57, the pIC50 [2, 5] was 3.51 and the pIC50 ([3]; read-out: CBE / Enz. assay) was 3.32. It also gave a pIC50 [4, 5] of 2.80.

In the case of `OC[C@@H]1[C@@H](O)[C@H](O)[C@@H](O)[C@@H]2O[C@H]12` [compound 2, cyclophellitol], the pIC50 ([1]; read-out: CP / Enz. assay) was 6.70, the pIC50 ([2]; read-out: CP / Enz. assay) was under 5.00 and the pIC50 ([3]; read-out: CP / Enz. assay) was under 5.00. For the same compound, the pIC50 ([4]; read-out: apparent IC50) was under 5.00.
